# From ChEMBL document CHEMBL1201862, “PubChem BioAssay data set” (2004)
#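 Values below derive from 48-hour exposures of cells grown in 96-well plates, with endpoints linearly interpolated between the two concentrations bracketing the appropriate inhibition level. GI50: concentration for 50% inhibition of growth.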 Calls of active or inactive are those of the source. Rule as the data show it: active = GI50 up to about 1.1 µM and inactive = higher.
# Tests used:
# Assay in all cases: inhibition of tumour cell growth, NCI panel, 48 h
# K562 = tested on: K562
# NCI/ADR-RES = tested on: NCI/ADR-RES
# ACHN = tested on: ACHN
# CCRF-CEM = tested on: CCRF-CEM
# DU-145 = tested on: DU-145
# OVCAR-8 = tested on: OVCAR-8
# KM12 = tested on: KM12
# SK-MEL-5 = tested on: SK-MEL-5
# SF-295 = tested on: SF-295
# MCF7 = tested on: MCF7
# HCC 2998 = tested on: HCC 2998
# OVCAR-3 = tested on: OVCAR-3
# DMS-273 = tested on: DMS-273
# HOP-18 = tested on: HOP-18
# KM-20L2 = tested on: KM-20L2
# NCI-H460 = tested on: NCI-H460
# HCT-116 = tested on: HCT-116
# SW-620 = tested on: SW-620
# RXF 631 = tested on: RXF 631
# DLD-1 = tested on: DLD-1
# M14 = tested on: M14
# SK-OV-3 = tested on: SK-OV-3
# RPMI-8226 = tested on: RPMI-8226
# SF-268 = tested on: SF-268
# T47D = tested on: T47D
# Malme-3M = tested on: Malme-3M
# EKVX = tested on: EKVX
# COLO 205 = tested on: COLO 205
# UACC-257 = tested on: UACC-257
# SNB-19 = tested on: SNB-19
# HCT-15 = tested on: HCT-15
# SR = tested on: SR
# SK-MEL-2 = tested on: SK-MEL-2
# MDA-MB-231 = tested on: MDA-MB-231
# NCI-H226 = tested on: NCI-H226
# XF498 = tested on: XF498
# OVCAR-4 = tested on: OVCAR-4
# SK-MEL-28 = tested on: SK-MEL-28
# Hs-578T = tested on: Hs-578T
# HOP-92 = tested on: HOP-92
# SF-539 = tested on: SF-539
# MDA-N = tested on: MDA-N
# UO-31 = tested on: UO-31
# HOP-62 = tested on: HOP-62
# M19-MEL = tested on: M19-MEL
# NCI-H23 = tested on: NCI-H23
# LXFL 529 = tested on: LXFL 529
# DMS-114 = tested on: DMS-114
# HL-60 = tested on: HL-60
# SNB-75 = tested on: SNB-75
# MOLT-4 = tested on: MOLT-4
# A549 = tested on: A549
# UACC-62 = tested on: UACC-62
# A498 = tested on: A498
# PC-3 = tested on: PC-3
# CAKI-1 = tested on: CAKI-1
# HT-29 = tested on: HT-29
# U-251 = tested on: U-251
# RXF 393 = tested on: RXF 393
# TK-10 = tested on: TK-10
# MDA-MB-435 = tested on: MDA-MB-435
# 786-0 = tested on: 786-0
# LOX IMVI = tested on: LOX IMVI
# SN12C = tested on: SN12C
# NCI-H522 = tested on: NCI-H522
# OVCAR-5 = tested on: OVCAR-5
# IGROV-1 = tested on: IGROV-1
smiles,measurement,setting,value
COc1ccc(NC(=O)CC(=O)n2nc(-c3ccccc3)c(/N=N/c3ccccc3C)c2-c2ccccc2)cc1,GI50,K562,> 79.8 µM (inactive)
same,GI50,NCI/ADR-RES,29.6 µM (inactive)
same,GI50,ACHN,26.1 µM (inactive)
same,GI50,CCRF-CEM,> 61.9 µM (inactive)
same,GI50,DU-145,45.8 µM (inactive)
same,GI50,OVCAR-8,28 µM (inactive)
same,GI50,KM12,53.3 µM (inactive)
same,GI50,SK-MEL-5,40.2 µM (inactive)
same,GI50,SF-295,23.3 µM (inactive)
same,GI50,MCF7,35.3 µM (inactive)
same,GI50,HCC 2998,> 78.7 µM (inactive)
same,GI50,OVCAR-3,17.3 µM (inactive)
same,GI50,DMS-273,16.5 µM (inactive)
same,GI50,HOP-18,42.5 µM (inactive)
same,GI50,KM-20L2,> 100 µM (inactive)
same,GI50,NCI-H460,22.4 µM (inactive)
same,GI50,HCT-116,20.5 µM (inactive)
same,GI50,SW-620,35.4 µM (inactive)
same,GI50,RXF 631,33.7 µM (inactive)
same,GI50,DLD-1,21.6 µM (inactive)
same,GI50,M14,40.9 µM (inactive)
same,GI50,SK-OV-3,19.9 µM (inactive)
same,GI50,RPMI-8226,> 58.5 µM (inactive)
same,GI50,SF-268,17.9 µM (inactive)
same,GI50,T47D,22.7 µM (inactive)
same,GI50,Malme-3M,24.3 µM (inactive)
same,GI50,EKVX,16.3 µM (inactive)
same,GI50,COLO 205,> 61.7 µM (inactive)
same,GI50,UACC-257,64.1 µM (inactive)
same,GI50,SNB-19,25.2 µM (inactive)
same,GI50,HCT-15,35.5 µM
same,GI50,SR,35.9 µM (inactive)
same,GI50,SK-MEL-2,18.2 µM (inactive)
same,GI50,MDA-MB-231,71 µM (inactive)
same,GI50,NCI-H226,26 µM (inactive)
same,GI50,XF498,19.3 µM (inactive)
same,GI50,OVCAR-4,23.9 µM (inactive)
same,GI50,SK-MEL-28,> 41.7 µM (inactive)
same,GI50,Hs-578T,14.3 µM (inactive)
same,GI50,HOP-92,15.6 µM (inactive)
same,GI50,SF-539,15.1 µM (inactive)
same,GI50,MDA-N,> 100 µM (inactive)
same,GI50,UO-31,35.6 µM (inactive)
same,GI50,HOP-62,15.9 µM (inactive)
same,GI50,M19-MEL,51.8 µM (inactive)
same,GI50,NCI-H23,22.1 µM (inactive)
same,GI50,LXFL 529,40 µM (inactive)
same,GI50,DMS-114,24.3 µM (inactive)
same,GI50,HL-60,54.6 µM (inactive)
same,GI50,SNB-75,18.7 µM (inactive)
same,GI50,MOLT-4,> 64.1 µM (inactive)
same,GI50,A549,23.6 µM (inactive)
same,GI50,UACC-62,19.2 µM (inactive)
same,GI50,A498,21.5 µM (inactive)
same,GI50,PC-3,17.1 µM (inactive)
same,GI50,CAKI-1,17.3 µM (inactive)
same,GI50,HT-29,44.9 µM (inactive)
same,GI50,U-251,16.4 µM (inactive)
same,GI50,RXF 393,17.3 µM (inactive)
same,GI50,TK-10,24.7 µM (inactive)
same,GI50,MDA-MB-435,> 100 µM (inactive)
same,GI50,786-0,18.5 µM (inactive)
same,GI50,LOX IMVI,41 µM (inactive)
same,GI50,SN12C,53.6 µM (inactive)
same,GI50,NCI-H522,23.6 µM (inactive)
same,GI50,OVCAR-5,> 100 µM (inactive)
same,GI50,IGROV-1,21.4 µM (inactive)
